Laboratory results as given in ChEMBL document CHEMBL1137441, “Carbonic anhydrase inhibitors: the inhibition profiles of the human mitochondrial isoforms VA and VB with anions are very different” (Bioorg Med Chem, 2007).

Columns and labels:
[1] = biological target: Carbonic anhydrase 5A, mitochondrial (Homo sapiens) (UniProt P35218); experiment: Inhibition of human mitochondrial CA5A by CO2 hydration assay
[2] = biological target: Carbonic anhydrase 5B, mitochondrial (Homo sapiens) (UniProt Q9Y2D0)
Carbonic anhydrase 5B, mitochondrial (Homo sapiens), sequence (Q9Y2D0 whole entry): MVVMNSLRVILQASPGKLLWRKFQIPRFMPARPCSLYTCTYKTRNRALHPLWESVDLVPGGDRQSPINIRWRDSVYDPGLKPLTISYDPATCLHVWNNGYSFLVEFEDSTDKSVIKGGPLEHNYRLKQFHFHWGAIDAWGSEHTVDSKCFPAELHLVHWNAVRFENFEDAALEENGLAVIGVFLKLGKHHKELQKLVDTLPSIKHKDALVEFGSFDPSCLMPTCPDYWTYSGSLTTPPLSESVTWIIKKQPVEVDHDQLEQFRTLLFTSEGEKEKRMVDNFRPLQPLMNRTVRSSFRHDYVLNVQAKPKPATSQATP
Description: Inhibition of human mitochondrial CA5B by CO2 hydration assay

Carbonic anhydrase 5A, mitochondrial (Homo sapiens), sequence (P35218 whole entry): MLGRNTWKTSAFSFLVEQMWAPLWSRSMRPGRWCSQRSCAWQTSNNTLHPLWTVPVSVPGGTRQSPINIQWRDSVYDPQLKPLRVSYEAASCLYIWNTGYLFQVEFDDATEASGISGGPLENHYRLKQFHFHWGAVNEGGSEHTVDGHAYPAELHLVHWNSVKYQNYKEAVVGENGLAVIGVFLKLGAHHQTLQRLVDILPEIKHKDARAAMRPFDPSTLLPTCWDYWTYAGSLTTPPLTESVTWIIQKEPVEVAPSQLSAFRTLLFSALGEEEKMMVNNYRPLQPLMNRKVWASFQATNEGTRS

Row | SMILES | Kinact [1] | Kinact [2]
1 | OB(O)c1ccccc1 | 1.04 mM | 
2 | O=[As](O)(O)c1ccccc1 | 1.02 mM | 0.082 mM
